Experimental data reported in patent publication US20030050248A1 (priority 2000, published 2003).
Values after ≈ are worked out from the molar mass of the structure shown. Ends that are not written are not given here. Peptide text beside a SMILES is read from it. * marks the point of attachment. Fmoc = O=C(OCC1c2ccccc2-c2ccccc21)*; X1 = O=C(Sc1ccccc1)*

What was measured:
S. epidermidis (51625) = format: cell-based
S. haemolyticus = format: cell-based
S. aureus [1] = format: cell-based
RNAIII [2] = format: cell-based, S. aureus
S. aureus [3] = test system: S. aureus
S. aureus [4] = assay: Mouse model, Staph mixed with drug prior to IP injection; format: in vivo, mice; conditions: for % Survival at 24 hr.: mixed with Staph prior to IP injection; for Number of mice that survived at 24 hours post-injection (in words): VIF-1 3 or 15 mg/kg, FTB 1, 2 or 5 mg/kg
Method: (§1) The assay was carried out by injecting a fixed amount of a S. aureus culture, typically containing from about 5×10^9 cells from an early exponential growth stage culture, by intraperitoneal (IP) injection into mice, based on the method described by Thakker et al., 1998.
In one study, the S. aureus was mixed with VIF-1 or FTB, prior to IP injection.

S. aureus [5] = assay: Mouse model, Staph injected IP 20 min prior to drug injection (IP); format: in vivo, mice; conditions: for % Survival at 24 hr.: 20 min after Staph; for Number of mice that survived at 24 hours post-injection relative to vehicle (in words): VIF-1 20 or 15 mg/kg, FTB 10 mg/kg
Method: as §1
In another approach, S. aureus was injected IP 20 minutes prior to IP injection of VIF-1 or FTB.
The commonly used anti-Staphylococcal antibiotics, methicillin and vancomycin, were tested in this model.

RNAIII [6] = conditions: reported by Balaban et al., 1998; cited from earlier work

For O=C(Nc1ccccc1C(=O)O)OCC1c2ccccc2-c2ccccc21 [Reference #4, Fmoc-2-aminobenzoic acid], which “IC50, α-toxin production” value (S. epidermidis (51625)) is on record?
The value was 0.5 µg/mL (≈ 1.39 µM).

And the “IC50, α-toxin production” value (S. haemolyticus)?
The value was 0.7 µg/mL (≈ 1.95 µM).

And the “Inhibition of TSST-1” value (S. aureus [1])?
The value was 2.0 µg/mL.

And the “Inhibition of RNA III activation” value (RNAIII [2])?
The value was 2.9 (3) μg/ml.

And the “Inhibition of α-Hemolysin production” value (S. aureus [3])?
Its value is 0.9 (5) μg/ml.

And the “Inhibition of α-toxin production (in words)” value (S. aureus [3])?
The value was “inhibited α-toxin production”.

And the “IC50, α-toxin production” value (S. warneri)?
The value was 0.6 µg/mL (≈ 1.67 µM).

What does the source list for O=C(O)[C@H]1c2ccccc2CCN1C(=O)OCC1c2ccccc2-c2ccccc21 [Reference #16]?
IC50, α-toxin production (S. epidermidis (51625)): 0.5 µg/mL (≈ 1.25 µM); IC50, α-toxin production (S. haemolyticus): 0.6 µg/mL (≈ 1.5 µM); Inhibition of TSST-1 (S. aureus [1]): 4.0 µg/mL; Inhibition of RNA III activation (RNAIII [2]): 3.5 (3) μg/ml; Inhibition of α-Hemolysin production (S. aureus [3]): 1.3 (3) μg/ml; Inhibition of α-toxin production (in words) (S. aureus [3]): inhibited α-toxin production; IC50, α-toxin production (S. warneri): 0.6 µg/mL (≈ 1.5 µM)

With CC(C)(C)OC(=O)n1cc(C[C@H](NC(=O)OCC2c3ccccc3-c3ccccc32)C(=O)O)c2ccccc21 [Reference #35, Fmoc-L-Trp(Boc)-OH] as the molecule, how does the “IC50, α-toxin production” value (S. epidermidis (51625)) read?
The value was 0.5 µg/mL (≈ 0.95 µM).

What about the “IC50, α-toxin production” value (S. haemolyticus) of the same molecule?
The value was 0.6 µg/mL (≈ 1.14 µM).

And the “Inhibition of TSST-1” value (S. aureus [1])?
Its value is 5.0 µg/mL.

What about the “Inhibition of RNA III activation” value (RNAIII [2]) of the same molecule?
The value was 1.4 µg/mL.

And the “% Survival at 24 hr.” value (S. aureus [4]; 0.2 mg/kg)?
The value was 0%.

What about the “% Survival at 24 hr.” value (S. aureus [4]; 1 mg/kg) of the same molecule?
The value was 83%.

And the “% Survival at 24 hr.” value (S. aureus [4]; 2 mg/kg)?
Its value is 67%.

What about the “% Survival at 24 hr.” value (S. aureus [4]; 5 mg/kg) of the same molecule?
The value was 83%.

What about the “Number of mice that survived at 24 hours post-injection (in words)” value (S. aureus [4]) of the same molecule?
Its value is “effective to significantly increase the number of mice that survived”.

What about the “% Survival at 24 hr.” value (S. aureus [5]; 2 mg/kg IP) of the same molecule?
Its value is 25%.

And the “% Survival at 24 hr.” value (S. aureus [5]; 10 mg/kg IP)?
The value was 71%.

And the “Number of mice that survived at 24 hours post-injection relative to vehicle (in words)” value (S. aureus [5])?
The value was “effective to significantly increase the number of mice that survived”.

And the “IC50, α-toxin production” value (S. aureus [3])?
The value was 0.8 µg/mL (≈ 1.52 µM).

What about the “Inhibition of α-Hemolysin production” value (S. aureus [3]) of the same molecule?
Its value is 1.2 (13) μg/ml.

What about the “Inhibition of α-toxin production (in words)” value (S. aureus [3]) of the same molecule?
Its value is “inhibited α-toxin production”.

And the “IC50, α-toxin production” value (S. warneri)?
Its value is 0.6 µg/mL (≈ 1.14 µM).

What does the source list for O=C(NC1(C(=O)O)CCCCC1)OCC1c2ccccc2-c2ccccc21 [Reference #86, Fmoc-1-amino-1-cyclohexane carboxylic acid]?
IC50, α-toxin production (S. epidermidis (51625)): 0.4 µg/mL (≈ 1.09 µM); IC50, α-toxin production (S. haemolyticus): 0.6 µg/mL (≈ 1.64 µM); Inhibition of TSST-1 (S. aureus [1]): 10.0 µg/mL; Inhibition of RNA III activation (RNAIII [2]): 3.0 (3) μg/ml; Inhibition of α-Hemolysin production (S. aureus [3]): 2.1 (3) μg/ml; Inhibition of α-toxin production (in words) (S. aureus [3]): inhibited α-toxin production; IC50, α-toxin production (S. warneri): 0.6 µg/mL (≈ 1.64 µM)

With O=C(O)[C@@H]1CC[C@H](c2ccccc2)N1C(=O)OCC1c2ccccc2-c2ccccc21 [Reference #113, (2S,5R)-Fmoc-5-phenyl-pyrrolidine-2-carboxylic acid] as the molecule, how does the “IC50, α-toxin production” value (S. epidermidis (51625)) read?
Its value is 0.5 µg/mL (≈ 1.21 µM).

What about the “IC50, α-toxin production” value (S. haemolyticus) of the same molecule?
The value was 0.7 µg/mL (≈ 1.69 µM).

And the “Inhibition of TSST-1” value (S. aureus [1])?
Its value is 6.0 µg/mL.

And the “Inhibition of RNA III activation” value (RNAIII [2])?
The value was 3.0 (1) μg/ml.

What about the “IC50, α-toxin production” value (S. aureus [3]) of the same molecule?
The value was 0.9 µg/mL (≈ 2.18 µM).

What about the “Inhibition of α-Hemolysin production” value (S. aureus [3]) of the same molecule?
Its value is 1.7 (5) μg/ml.

And the “Inhibition of α-toxin production (in words)” value (S. aureus [3])?
Its value is “inhibited α-toxin production”.

What about the “IC50, α-toxin production” value (S. warneri) of the same molecule?
Its value is 0.6 µg/mL (≈ 1.45 µM).

For O=C(N[C@@H](C/C=C/c1ccccc1)C(=O)O)OCC1c2ccccc2-c2ccccc21 [Reference #124, Fmoc-L-styrylalanine], which “IC50, α-toxin production” value (S. epidermidis (51625)) is on record?
Its value is 0.6 µg/mL (≈ 1.45 µM).

And the “IC50, α-toxin production” value (S. haemolyticus)?
The value was 0.5 µg/mL (≈ 1.21 µM).

What about the “Inhibition of TSST-1” value (S. aureus [1]) of the same molecule?
Its value is 10.0 µg/mL.

And the “Inhibition of RNA III activation” value (RNAIII [2])?
The value was 2.9 (1) μg/ml.

And the “Inhibition of α-Hemolysin production” value (S. aureus [3])?
The value was 2.0 (4) μg/ml.

What about the “Inhibition of α-toxin production (in words)” value (S. aureus [3]) of the same molecule?
The value was “inhibited α-toxin production”.

What about the “IC50, α-toxin production” value (S. warneri) of the same molecule?
The value was 0.7 µg/mL (≈ 1.69 µM).

For C[C@@H](O)[C@H](NC(=O)[C@H](Cc1cn(C(=O)Sc2ccccc2)c2ccccc12)NC(=O)[C@@H]1CCCN1C(=O)[C@H](CO)NC(=O)[C@H](Cc1ccc(O)cc1)NC(=O)OCC1c2ccccc2-c2ccccc21)C(=O)N[C@@H](CC(N)=O)C(=O)N[C@@H](Cc1ccccc1)C(=O)O [VIF-1, (Fmoc-Tyr)-Ser-Pro-Trp(phenylthiocarbamate)-Thr-Asn-Phe] (Fmoc-YSPW(X1)TNF-OH; C-terminus assumed), which “Lowest concentration that suppressed release of TSST-1” value (S. aureus [1]) is on record?
The value was 0.2 µg/mL.

What about the “Inhibition of RNA III activation” value (RNAIII [2]) of the same molecule?
Its value is 1.5 µg/mL.

What about the “% Survival at 24 hr.” value (S. aureus [4]; 1 mg/kg) of the same molecule?
The value was 67%.

And the “% Survival at 24 hr.” value (S. aureus [4]; 3 mg/kg)?
Its value is 83%.

What about the “% Survival at 24 hr.” value (S. aureus [4]; 15 mg/kg) of the same molecule?
The value was 83%.

And the “Number of mice that survived at 24 hours post-injection (in words)” value (S. aureus [4])?
The value was “effective to significantly increase the number of mice that survived”.

And the “% Survival at 24 hr.” value (S. aureus [5]; 6 mg/kg IP)?
Its value is 13%.

And the “% Survival at 24 hr.” value (S. aureus [5]; 15 mg/kg IP)?
The value was 50%.

What about the “% Survival at 24 hr.” value (S. aureus [5]; 20 mg/kg IP) of the same molecule?
The value was 67%.

And the “Number of mice that survived at 24 hours post-injection relative to vehicle (in words)” value (S. aureus [5])?
Its value is “effective to significantly increase the number of mice that survived”.

And the “IC50, α-toxin production” value (S. aureus [3])?
The value was 0.6 µg/mL (≈ 0.472 µM).

And the “Inhibition of α-Hemolysin production” value (S. aureus [3])?
The value was 1.1 µg/mL.

What about the “Inhibition of α-toxin production (in words)” value (S. aureus [3]) of the same molecule?
Its value is “inhibited α-toxin production”.

And the “IC50, α-toxin production” value (S. warneri)?
The value was 0.1 µg/mL (≈ 0.0786 µM).

What about the “IC50 for inhibition of hemolysin production” value (S. warneri) of the same molecule?
Its value is 0.10 µg/mL.

And the “Inhibition of hemolysin production (in words)” value (S. warneri)?
The value was “potently inhibited”.

For “ProCysThrAsnPhe (PCTNF; printed: ProCysThrAsnPhe) [peptide 1]”, which “Inhibition of induction of RNAIII (in words)” value (RNAIII [6]) is on record?
Its value is “inactive”.

With YSPWTNF [PEP, reference compound] as the molecule, how does the “Inhibition of RNAIII induction (in words)” value (RNAIII [2]) read?
The value was “no significant activity”.

And the “Inhibition of α-toxin / virulence factor production (in words)” value (S. aureus [3])?
The value was “no significant activity”.

What about the “Inhibition of induction of RNAIII (in words)” value (RNAIII [6]) of the same molecule?
Its value is “inhibit induction of RNAIII as effectively as RIP”.
